Measurements taken from ChEMBL document CHEMBL1135787, “Synthesis of new molecular probes for investigation of steroid biosynthesis induced by selective interaction with peripheral type benzodiazepine receptors (PBR)” (J Med Chem, 2002).

What was measured:
Translocator protein [1] = biological target: T1, Translocator protein (Rattus norvegicus, UniProt P16257); assay: Inhibition of [3H]PK11195 binding to Peripheral type benzodiazepine receptor (PBR) in rat cortex homogenate by 50%
Translocator protein [2] = biological target: T1, Translocator protein; assay: Inhibition of [3H]PK11195 binding to mitochondrial rat testis Peripheral type benzodiazepine receptor (PBR)
Translocator protein [3] = biological target: T1, Translocator protein; assay: Inhibition of [3H]Ro-5-4864 binding to mitochondrial rat testis Peripheral type benzodiazepine receptor (PBR)
[4] = Stimulatory effect on progesterone biosynthesis in MA10 leydig cells; format: functional, Mus musculus

T1 sequence (P16257 whole entry, looked up): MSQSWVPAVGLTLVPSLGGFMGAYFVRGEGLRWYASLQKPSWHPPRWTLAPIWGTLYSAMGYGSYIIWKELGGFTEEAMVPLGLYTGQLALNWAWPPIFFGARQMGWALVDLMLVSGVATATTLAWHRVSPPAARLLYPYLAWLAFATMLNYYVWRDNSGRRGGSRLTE

| SMILES | Ki (Translocator protein [1]) [nM] | Ki (Translocator protein [2]) [nM] | Ki (Translocator protein [3]) [nM] | Progesterone production [4] |
| --- | --- | --- | --- | --- |
| O=C(OC1=C(c2ccccc2)Oc2ccccc2-n2cccc21)N1CCC1 | 6.03 | 6 | 4.3 | 3.5 ng 2hr-1 (10e5*cells)-1 |
| CCNC(=O)OC1=C(c2ccc(C)cc2)Oc2ccccc2-n2cccc21 | 0.68 | – | – | – |
| CCCCN(C)C(=O)OC1=C(c2ccccc2)Oc2ccccc2-n2cccc21 | 0.92 | – | – | – |
| CCN(CC)C(=O)OC1=C(c2cccc(C)c2)Oc2ccccc2-n2cccc21 | 1.2 | – | – | – |
| CCN(CC)C(=O)OC1=C(c2ccccc2)Oc2cccnc2-n2cccc21 | 1.77 | 11 | 22 | 3.5 ng 2hr-1 (10e5*cells)-1 |
| CCNC(=O)OC1=C(c2ccccc2)Oc2c(Cl)cccc2-n2cccc21 | 0.18 | – | – | – |
| CCN(CC)C(=O)OC1=C(c2cc(F)cc(F)c2)Oc2ccccc2-n2cccc21 | 1.26 | – | – | – |
| CC(=O)OC1=C(c2cccc(C)c2)Oc2ccccc2-n2cccc21 | 2.5 | – | – | – |
| CCNC(=O)OC1=C(c2ccccc2)Oc2ccccc2-n2cccc21 | 0.11 | 0.2 | 0.1 | 3.3 ng 2hr-1 (10e5*cells)-1 |
| CCN(CC)C(=O)OC1=C(c2cccs2)Oc2ccccc2-n2cccc21 | 11.5 | – | – | – |
| CCCNC(=O)OC1=C(c2ccccc2)Oc2ccccc2-n2cccc21 | 0.91 | – | – | – |
| CN1CCN(C(=O)OC2=C(c3ccccc3)Oc3ccccc3-n3cccc32)CC1 | 7.2 | 29 | 15 | 3.8 ng 2hr-1 (10e5*cells)-1 |
| CCN(CC)C(=O)OC1=C(c2cccs2)Oc2cccnc2-n2cccc21 | 0.23 | – | – | – |
| Cc1ccc(C2=C(OC(=O)N(C)C)c3cccn3-c3ncccc3O2)cc1 | 0.44 | – | – | – |
| CC(=O)OC1=C(c2ccc(C)cc2)Oc2cccnc2-n2cccc21 | 13.5 | – | – | – |
| CCCN(C)C(=O)OC1=C(c2ccccc2)Oc2ccccc2-n2cccc21 | 0.69 | – | – | – |
| CCN(CC)C(=O)OC1=C(c2cccc(C)c2)Oc2cccnc2-n2cccc21 | 0.56 | – | – | – |
| CCN(CC)C(=O)OC1=C(c2ccccc2)Cc2ccccc2-n2cccc21 | 5.7 | – | – | – |
| CCN(C)C(=O)OC1=C(c2ccccc2)Oc2ccccc2-n2cccc21 | 0.78 | – | – | – |
| O=C(NC1CC1)OC1=C(c2ccccc2)Oc2ccccc2-n2cccc21 | 2.21 | 0.31 | 0.47 | 3.5 ng 2hr-1 (10e5*cells)-1 |
| O=C1CN=C(c2ccccc2Cl)c2cc([N+](=O)[O-])ccc2N1 [CLONAZEPAM] | – | – | – | 2.3 ng 2hr-1 (10e5*cells)-1 |
| CCC(C)N(C)C(=O)c1cc2ccccc2c(-c2ccccc2Cl)n1 (configuration not stated) [PK-11195] | – | – | – | 3.4 ng 2hr-1 (10e5*cells)-1 |
